The text below walks through data of ChEMBL document CHEMBL4265919, “Structural alterations based on naproxen scaffold: Synthesis, evaluation of antitumor activity and COX-2 inhibition, and molecular docking” (Eur J Med Chem, 2018).

The test system of one assay is HCT-116. The assay can be described thus: Antiproliferative activity against human HCT116 cells by MTT assay. It counts as functional, cell-based.
A further assay relates to Caco-2. The assay is described as follows: Antiproliferative activity against human Caco2 cells by MTT assay. In kind it is functional, cell-based.
A further assay deals with MDA-MB-231. The assay can be described thus: Antiproliferative activity against human MDA231 cells by MTT assay. It counts as functional, cell-based.
A further assay has as its system MCF7. The assay is described as follows: Antiproliferative activity against human MCF7 cells by MTT assay. In kind it is functional, cell-based.
In assay [1] the target is T1, Prostaglandin G/H synthase 1 (Ovis aries, UniProt P05979).
T1 sequence (P05979 whole entry): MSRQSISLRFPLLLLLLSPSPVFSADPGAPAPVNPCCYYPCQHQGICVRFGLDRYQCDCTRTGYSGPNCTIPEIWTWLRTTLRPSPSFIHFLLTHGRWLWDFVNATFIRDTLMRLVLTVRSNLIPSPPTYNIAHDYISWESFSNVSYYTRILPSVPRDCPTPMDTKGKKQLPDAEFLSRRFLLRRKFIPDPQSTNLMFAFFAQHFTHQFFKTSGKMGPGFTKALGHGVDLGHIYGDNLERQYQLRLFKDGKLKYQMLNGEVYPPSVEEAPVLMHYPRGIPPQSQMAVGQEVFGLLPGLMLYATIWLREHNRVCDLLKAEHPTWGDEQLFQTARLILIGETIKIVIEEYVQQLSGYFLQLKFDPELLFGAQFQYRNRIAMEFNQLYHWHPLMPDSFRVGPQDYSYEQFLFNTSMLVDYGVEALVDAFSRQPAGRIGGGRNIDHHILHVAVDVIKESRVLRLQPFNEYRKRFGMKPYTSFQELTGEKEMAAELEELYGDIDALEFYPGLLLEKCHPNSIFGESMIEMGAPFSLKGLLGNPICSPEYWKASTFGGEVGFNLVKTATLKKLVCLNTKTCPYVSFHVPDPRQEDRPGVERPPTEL
The assay can be described thus: Inhibition of ovine COX1 using arachidonic acid as substrate incubated for 5 mins followed by substrate addition measured after 2 mins by colorimetric based ELISA.

The next assay deals with HeLa. The assay is described as follows: Antiproliferative activity against human HeLa cells by MTT assay. In kind it is functional, cell-based.

Each structure is given as a SMILES string.

For the molecule `COc1ccc2cc(C(C)c3nnc4n3N=C(c3ccccc3)CS4)ccc2c1` (stereo not drawn), the IC50 in the assay on HCT-116 was 67.4 µM; with Caco-2 it was 81.3 µM; in the assay with MDA-MB-231, 49.2 µM.
As to `COc1ccc2cc(C(C)c3n[nH]c(=S)n3N)ccc2c1` (stereo not drawn), the IC50 with HCT-116 was 60.5 µM; with MCF7, 38.3 µM; in the assay on Caco-2 it was 77.7 µM; in assay [1] it was more than 25 µM; in the assay with HeLa, 20.7 µM; in the assay with MDA-MB-231 it was 41.8 µM.
With `COc1ccc2cc(C(C)C(=O)NN3C(=O)CCC3=O)ccc2c1` (stereo not drawn), the IC50 in the assay on HCT-116 is 56.2 µM; with MCF7, 26.7 µM; in the assay on Caco-2 it was 63.8 µM; in assay [1], more than 25 µM; in the assay on HeLa it was 30.4 µM; in the assay with MDA-MB-231 it was 52.8 µM.
Consider `COc1ccc2cc(C(C)C(=O)NN=C3CCCCC3)ccc2c1` (stereo not drawn), for which the IC50 was 14.5 µM in the assay on HCT-116; 12.1 µM in the assay with MCF7; 18.8 µM with Caco-2; more than 25 µM in assay [1]; 13 µM with HeLa; 9.65 µM with MDA-MB-231.
Take `COc1ccc2cc(C(C)c3nnc4n3NC(=O)CS4)ccc2c1` (stereo not drawn): the IC50 was more than 100 µM in the assay with HCT-116; 85.7 µM in the assay with MCF7; more than 100 µM with Caco-2; 86.4 µM in the assay with HeLa; 93.8 µM with MDA-MB-231.
Take `COc1ccc2cc(C(C)C(=O)NN=C3CCCCCC3)ccc2c1` (stereo not drawn): the IC50 in the assay on HCT-116 was 44.7 µM; in the assay on MCF7, 48.2 µM; with Caco-2 it was 46.1 µM; in assay [1], more than 25 µM; in the assay on HeLa, 59.4 µM; in the assay with MDA-MB-231 it was 32.7 µM.
Take `COc1ccc2cc(C(C)c3nnc(-c4ccc(O)cc4)o3)ccc2c1` (stereo not drawn): the IC50 in the assay with HCT-116 was 10.5 µM; with MCF7, 5.89 µM; in the assay on Caco-2, 33.9 µM; in assay [1], more than 25 µM; with HeLa it was 6.15 µM; with MDA-MB-231 it was 7.29 µM.
For the molecule `COc1ccc2cc(C(C)c3n[nH]c(=S)n3/N=C/c3ccc(O)cc3)ccc2c1` (stereo not drawn), the IC50 was 5.14 µM in the assay on HCT-116; 7.74 µM with MCF7; 13.8 µM with Caco-2; more than 25 µM in assay [1]; 9.03 µM in the assay with HeLa; 4.83 µM in the assay with MDA-MB-231.
Consider `COc1ccc2cc(C(C)c3nnc(-c4ccc([N+](=O)[O-])cc4)o3)ccc2c1` (stereo not drawn), for which the IC50 is 75 µM with HCT-116; 42.1 µM with MCF7; more than 100 µM in the assay on Caco-2; more than 25 µM in assay [1]; 35.1 µM with HeLa; 66.3 µM in the assay on MDA-MB-231.
Regarding `COc1ccc2cc(C(C)c3nnc(SCc4ccccc4)o3)ccc2c1` (stereo not drawn), the half-inhibitory concentration (IC50) in the assay with HCT-116 is more than 100 µM; with MCF7, 91.4 µM; in the assay on Caco-2 it was more than 100 µM; in the assay with HeLa, more than 100 µM; with MDA-MB-231, 89.4 µM.
With `COc1ccc2cc(C(C)c3n[nH]c(=S)n3/N=C/c3ccccc3)ccc2c1` (stereo not drawn), the half-inhibitory concentration (IC50) is 19.1 µM in the assay with HCT-116; 61.7 µM in the assay on MCF7; 28 µM in the assay with Caco-2; more than 25 µM in assay [1]; 65.6 µM in the assay with HeLa; 14.8 µM with MDA-MB-231.
With `COc1ccc2cc(C(C)C(=O)NN3C(=O)C=CC3=O)ccc2c1` (stereo not drawn), the IC50 in the assay with HCT-116 is 22.1 µM; in the assay on MCF7, 21.9 µM; with Caco-2 it was 39.5 µM; in assay [1], more than 25 µM; in the assay on HeLa, 15.1 µM; with MDA-MB-231 it was 11.1 µM.
Consider `COc1ccc2cc(C(C)C(=O)NN=C3CCCC3)ccc2c1` (stereo not drawn), for which the IC50 with HCT-116 was more than 100 µM; in the assay on MCF7, 71.5 µM; in the assay with Caco-2, more than 100 µM; with HeLa, 69.1 µM; in the assay on MDA-MB-231 it was 80.7 µM.
With `COc1ccc2cc(C(C)c3nnc(-c4ccc(C)cc4)o3)ccc2c1` (stereo not drawn), the IC50 was 28.4 µM with HCT-116; 31.7 µM with MCF7; 43.9 µM in the assay on Caco-2; more than 25 µM in assay [1]; 19.4 µM in the assay with HeLa; 16.2 µM in the assay with MDA-MB-231.
For the molecule `COc1ccc2cc(C(C)c3nnc(SC)o3)ccc2c1` (stereo not drawn), the 50% inhibitory concentration (IC50) with HCT-116 was 39.9 µM; in the assay on MCF7 it was 57.2 µM; in the assay with Caco-2 it was 73.5 µM; in assay [1], more than 25 µM; in the assay on HeLa it was 26.2 µM; in the assay on MDA-MB-231 it was 29.5 µM.
As for `COc1ccc2cc(C(C)C(=O)NN=C3CCN(C)CC3)ccc2c1` (stereo not drawn), the IC50 in the assay with HCT-116 is 83.6 µM; with MCF7 it was 68.7 µM; in the assay on Caco-2, more than 100 µM; with HeLa, 51.6 µM; with MDA-MB-231, 72 µM.
On to `COc1ccc2cc(C(C)C(=O)NN3C(=O)c4ccccc4C3=O)ccc2c1` (stereo not drawn), for which the 50% inhibitory concentration (IC50) is 49.8 µM in the assay on HCT-116; 79.3 µM in the assay with MCF7; 58.2 µM in the assay on Caco-2; more than 25 µM in assay [1]; 78.6 µM with HeLa; 37.2 µM in the assay with MDA-MB-231.
On to `COc1ccc2cc(C(C)c3nnc(SC4CCCC4)o3)ccc2c1` (stereo not drawn), for which the IC50 was 34.3 µM in the assay with HCT-116; 47.1 µM in the assay on MCF7; 50.9 µM in the assay with Caco-2; more than 25 µM in assay [1]; 48.9 µM in the assay on HeLa; 23.2 µM in the assay on MDA-MB-231.
With `COc1ccc2cc(C(C)c3n[nH]c(=S)n3/N=C/c3cccc(Br)c3)ccc2c1` (stereo not drawn), the IC50 in the assay with HCT-116 is 8.76 µM; with MCF7 it was 9.26 µM; in the assay on Caco-2, 16 µM; in assay [1] it was more than 25 µM; in the assay with HeLa it was 12.1 µM; in the assay on MDA-MB-231 it was 8.14 µM.
As for `CN(C)C/C=C/C(=O)Nc1cc2c(Nc3ccc(F)c(Cl)c3)ncnc2cc1O[C@H]1CCOC1` [AFATINIB], the IC50 in the assay with HCT-116 was 11.4 µM; in the assay on MCF7, 7.1 µM; in the assay with Caco-2 it was 7.7 µM; in the assay with HeLa, 6.2 µM; with MDA-MB-231, 7.5 µM.
On to `Cc1ccc(-c2cc(C(F)(F)F)nn2-c2ccc(S(N)(=O)=O)cc2)cc1` [CELECOXIB], for which the concentration for half-maximal inhibition (IC50) with HCT-116 was found to be 29.5 µM; in the assay with MCF7, 31.3 µM; with Caco-2, 42.7 µM; with HeLa it was 36.1 µM; with MDA-MB-231, 22.8 µM.
The molecule `COc1cccc2c1C(=O)c1c(O)c3c(c(O)c1C2=O)C[C@@](O)(C(=O)CO)C[C@@H]3O[C@H]1C[C@H](N)[C@H](O)[C@H](C)O1` [DOXORUBICIN] showed an IC50 with Caco-2 of 26.8 µM.
